Measurements as given in patent US12581252B2, “Substituted pyrrolo[3,4-b]pyridines as PI3K-α inhibitors” (Relay Therapeutics, Inc., priority 2020, dated 2026).

Target: H1047R PIK3CA enzyme (Homo sapiens, UniProt P42336, H1047R)
Experiment: ADP-Glo Biochemical PIK3CA Kinase Assay

Chain of H1047R PIK3CA enzyme (P42336 whole entry H1047R): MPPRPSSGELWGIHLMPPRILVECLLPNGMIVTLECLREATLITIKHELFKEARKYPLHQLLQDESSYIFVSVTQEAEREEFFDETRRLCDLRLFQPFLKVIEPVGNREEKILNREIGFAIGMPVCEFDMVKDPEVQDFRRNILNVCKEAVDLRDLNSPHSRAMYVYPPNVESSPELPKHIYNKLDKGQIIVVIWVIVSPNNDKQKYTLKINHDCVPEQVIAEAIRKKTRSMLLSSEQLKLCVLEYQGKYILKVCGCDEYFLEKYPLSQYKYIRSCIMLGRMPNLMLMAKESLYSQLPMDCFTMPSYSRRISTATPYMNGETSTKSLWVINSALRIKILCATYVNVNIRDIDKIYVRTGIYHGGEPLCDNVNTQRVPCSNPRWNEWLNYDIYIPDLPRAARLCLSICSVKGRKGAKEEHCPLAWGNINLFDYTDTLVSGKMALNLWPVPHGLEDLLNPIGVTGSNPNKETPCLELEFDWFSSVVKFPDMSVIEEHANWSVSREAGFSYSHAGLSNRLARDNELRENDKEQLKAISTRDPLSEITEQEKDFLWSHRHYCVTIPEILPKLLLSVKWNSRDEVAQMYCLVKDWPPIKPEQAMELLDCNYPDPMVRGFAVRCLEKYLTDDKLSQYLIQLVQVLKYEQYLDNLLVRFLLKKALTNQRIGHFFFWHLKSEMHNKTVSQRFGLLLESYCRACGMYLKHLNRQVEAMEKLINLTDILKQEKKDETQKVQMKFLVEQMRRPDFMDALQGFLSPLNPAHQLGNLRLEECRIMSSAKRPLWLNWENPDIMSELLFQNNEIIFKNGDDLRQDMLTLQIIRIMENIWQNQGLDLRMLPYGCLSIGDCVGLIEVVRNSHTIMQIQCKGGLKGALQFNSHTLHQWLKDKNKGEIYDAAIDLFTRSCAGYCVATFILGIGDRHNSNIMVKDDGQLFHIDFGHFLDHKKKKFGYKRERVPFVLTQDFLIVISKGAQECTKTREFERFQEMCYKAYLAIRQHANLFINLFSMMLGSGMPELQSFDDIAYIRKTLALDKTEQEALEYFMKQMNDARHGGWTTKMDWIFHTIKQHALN
Chain of H1047R PIK3CA enzyme (P27986 whole entry partner): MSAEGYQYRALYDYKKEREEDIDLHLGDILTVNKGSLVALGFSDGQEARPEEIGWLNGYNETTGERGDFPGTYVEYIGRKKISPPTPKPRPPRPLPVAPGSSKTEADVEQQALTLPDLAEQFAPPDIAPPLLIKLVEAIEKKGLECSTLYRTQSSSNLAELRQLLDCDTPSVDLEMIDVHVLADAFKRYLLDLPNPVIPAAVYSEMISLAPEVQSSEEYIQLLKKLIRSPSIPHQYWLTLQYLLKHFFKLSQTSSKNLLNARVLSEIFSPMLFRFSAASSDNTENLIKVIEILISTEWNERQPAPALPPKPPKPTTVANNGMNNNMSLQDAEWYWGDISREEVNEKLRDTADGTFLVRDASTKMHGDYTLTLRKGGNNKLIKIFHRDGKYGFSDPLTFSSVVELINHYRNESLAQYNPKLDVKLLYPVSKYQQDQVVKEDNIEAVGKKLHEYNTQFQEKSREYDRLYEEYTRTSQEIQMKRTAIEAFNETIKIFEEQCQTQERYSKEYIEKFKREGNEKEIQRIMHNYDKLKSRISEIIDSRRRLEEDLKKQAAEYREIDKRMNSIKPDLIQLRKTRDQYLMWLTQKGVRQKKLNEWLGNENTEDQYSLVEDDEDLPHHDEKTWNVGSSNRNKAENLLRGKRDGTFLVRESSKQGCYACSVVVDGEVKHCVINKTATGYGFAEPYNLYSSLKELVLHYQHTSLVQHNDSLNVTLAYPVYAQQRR

Compound | IC50 [µM]
CC(O)(CC#N)c1cc(NC(=O)c2cc(F)cc(C(F)(F)F)c2)c2c(c1)C(=O)NC2c1cc(F)ccc1Cl (centres unmarked) [Compound I-1211] | ≤ 0.1
O=C(Nc1cc(Cl)nc2c1[C@H](c1cc(F)ccc1Cl)NC2=O)c1cc(F)cc(C(F)(F)F)c1 [Compound I-616] | 0.1 to 0.5
O=C(Nc1cc(Br)cc2c1[C@H](c1cc(Cl)ccc1Cl)NC2=O)c1cc(F)cc(C(F)(F)F)c1 [Compound I-765] | ≤ 0.1
O=C(Nc1cc(-c2cnc3ncnn3c2)cc2c1[C@@H](c1cc(F)ccc1Cl)NC2=O)c1cc(F)cc(C(F)(F)F)c1 [Compound I-1023] | 0.5 to 1
CC(C)(COS(C)(=O)=O)c1cc(NC(=O)c2cc(F)cc(C(F)(F)F)c2)c2c(c1)C(=O)NC2c1cc(F)ccc1Cl (centres unmarked) [Compound I-656] | ≤ 0.1
O=C(Nc1cc(Br)cc2c1C(c1cc(F)ccc1Cl)NC2=O)c1ccc(C(F)F)cc1 (centres unmarked) [Compound I-572] | 1 to 10
N#CC1(COc2cc(NC(=O)c3cc(F)cc(C(F)(F)F)c3)c3c(c2)C(=O)NC3c2cc(F)ccc2Cl)CC1 (centres unmarked) [Compound I-1113] | ≤ 0.1
O=C1NC(c2cc(F)ccc2Cl)c2c(NC(=O)C34CC5CC(F)(CC(F)(C5)C3)C4)cccc21 (centres unmarked) [Compound I-1180] | 0.1 to 0.5
Cc1c(-c2cc(NC(=O)c3cc(F)cc(Cl)c3)c3c(n2)C(=O)NC3c2cc(F)ccc2Cl)cnn1C (centres unmarked) [Compound I-381] | 0.1 to 0.5
Cn1ccnc1-c1cc(NC(=O)c2cc(F)cc(C(F)(F)F)c2)c2c(c1)C(=O)NC2c1cc(F)ccc1Cl (racemic) [Compound I-1193] | 0.1 to 0.5
Cc1ccccc1C1NC(=O)c2cccc(NC(=O)c3nscc3-c3ccccc3)c21 (centres unmarked) [Compound I-413] | 1 to 10
O=C1N[C@H](c2cc(F)ccc2Cl)c2c(NC(=O)[C@@H]3CCC[C@@H](OC(F)(F)F)C3)cccc21 (single isomer, unassigned) [Compound I-2215] | 10 to 100
NCCc1cc(NC(=O)N2C[C@@H](O)c3cc(F)ccc32)c2c(c1)C(=O)N[C@@H]2c1cc(F)ccc1Cl (single isomer, unassigned) [Compound I-2444] | 0.1 to 0.5
CN1C(=O)NC(c2cc(F)ccc2Cl)c2c(NC(=O)c3cc(F)cc(C(F)(F)F)c3)cccc21 (centres unmarked) [Compound I-1951] | 1 to 10
O=C(Nc1cc(-c2cnn(-c3nccs3)c2)cc2c1C(c1cc(F)ccc1Cl)NC2=O)c1cc(F)cc(C(F)(F)F)c1 (centres unmarked) [Compound I-1572] | ≤ 0.1
O=C1N[C@H](c2cc(F)ccc2Cl)c2c(NC(=O)N3C[C@@H](O)c4c(F)cccc43)cccc21 (single isomer, unassigned) [Compound I-2145] | 1 to 10
O=C1CCC(c2cc(NC(=O)c3cc(F)cc(C(F)(F)F)c3)c3c(c2)C(=O)NC3c2cc(F)ccc2Cl)N1 (centres unmarked) [Compound I-861] | ≤ 0.1
O=C(Nc1cc(Br)cc2c1C(c1cc(F)ccc1Cl)NC2=O)c1cccc2c1OCCC2 (centres unmarked) [Compound I-601] | 10 to 100
C[C@@]1(C(=O)Nc2cc(Br)cc3c2[C@@H](c2cc(F)ccc2Cl)NC3=O)CCC[C@H](C(F)(F)F)C1 (single isomer, unassigned) [Compound I-2260] | 0.5 to 1
O=C1NC(c2cc(F)ccc2Cl)c2c(NC(=O)C34CC5CC(CC(Cl)(C5)C3)C4)cc(Br)cc21 (centres unmarked) [Compound I-1179] | ≤ 0.1
N#Cc1ccc2c(c1)CCN2C(=O)Nc1cccc2c1C(c1cc(F)ccc1Cl)NC2=O (centres unmarked) [Compound I-2426] | 10 to 100
N#Cc1cnn(-c2cc(NC(=O)N3CC(O)c4cc(F)ccc43)c3c(c2)C(=O)NC3c2cc(F)ccc2Cl)c1 (centres unmarked) [Compound I-2404] | 0.1 to 0.5

Compound | IC50 [µM]
O=C1N[C@H](c2cc(F)ccc2Cl)c2c(NC(=O)N3C[C@H](O)c4cc(F)ccc43)cc(Cl)cc21 (single isomer, unassigned) [Compound I-2399] | 1 to 10
O=C(Nc1cc(-c2ccc3nc(C(F)F)cn3c2)cc2c1[C@H](c1cc(F)ccc1Cl)NC2=O)c1cc(F)cc(C(F)(F)F)c1 [Compound I-1929] | ≤ 0.1
O=C1NC(c2cc(F)ccc2Cl)c2c(NC(=O)N3CCCCc4ccccc43)cccc21 (centres unmarked) [Compound I-2306] | 10 to 100
O=C(Nc1cc(N2CCn3cncc3C2)cc2c1C(c1cc(F)ccc1Cl)NC2=O)c1cc(F)cc(C(F)(F)F)c1 (centres unmarked) [Compound I-1237] | ≤ 0.1
O=C1NC(c2cccc(F)c2F)c2c(NC(=O)c3coc4c(F)cc(F)cc34)ccnc21 (centres unmarked) [Compound I-210] | 1 to 10
O=C(Nc1cc(-c2ccc3ncnn3c2)cc2c1C(c1cc(F)ccc1Cl)NC2=O)c1cc(F)cc2c1NC(=O)C2(F)F (centres unmarked) [Compound I-1547] | ≤ 0.1
O=C(Nc1cc(NCC2(O)CC2)cc2c1C(c1cc(F)ccc1Cl)NC2=O)c1cc(F)cc(C(F)(F)F)c1 (centres unmarked) [Compound I-1181] | ≤ 0.1
O=C(Nc1cc(-c2ccn3ncnc3c2)cc2c1[C@H](c1cc(F)ccc1Cl)NC2=O)c1cc(F)cc(C(F)(F)F)c1 (stereo in doubt) [Compound I-1597] | ≤ 0.1
O=C1NC(c2cc(F)ccc2Cl)c2c(NC(=O)c3cncc4ccccc34)cc(Br)cc21 (centres unmarked) [Compound I-673] | 1 to 10
O=C(Nc1cc(-c2cnc(-c3ncco3)nc2)cc2c1C(c1cc(F)ccc1Cl)NC2=O)c1cc(F)cc(C(F)(F)F)c1 (centres unmarked) [Compound I-1464] | ≤ 0.1
Cc1ccccc1C1NC(=O)c2cccc(NC(=O)c3ncc4ccc(Cl)cn34)c21 (centres unmarked) [Compound I-151] | 10 to 100
O=C(Nc1cc(Br)cc2c1C(c1cc(F)cc(F)c1)NC2=O)c1cc(F)cc(F)c1 (centres unmarked) [Compound I-2156] | 1 to 10
C[C@@H](C#N)Cn1cc(-c2cc(NC(=O)N3C[C@H](O)c4cc(F)ccc43)c3c(c2)C(=O)N[C@@H]3c2cc(F)ccc2Cl)cn1 (single isomer, unassigned) [Compound I-2501] | 0.1 to 0.5
NCc1cc(NC(=O)N2C[C@](O)(C(F)F)c3cc(F)ccc32)c2c(c1)C(=O)N[C@H]2c1cc(F)ccc1Cl (single isomer, unassigned) [Compound I-2697] | 1 to 10
O=C(Nc1cccc2c1[C@@H](C1CC1)NC2=O)c1cc(F)cc(C(F)(F)F)c1 (single isomer, unassigned) [Compound I-2220] | 10 to 100
O=C1NC(c2cc(F)ccc2Cl)c2c(NC(=O)C(Cl)c3ccccc3)cc(-c3ccc4ncnn4c3)cc21 (centres unmarked) [Compound I-1630] | 1 to 10
Cc1ccccc1[C@H]1NC(=O)c2cc(N)cc(NC(=O)c3cc(F)cc(C(F)(F)F)c3)c21 [Compound I-65] | 1 to 10
CC(C)(O)c1cc(NC(=O)c2cc(F)cc(C(F)(F)F)c2)c2c(c1)C(=O)NC2c1ccccc1Cl (centres unmarked) [Compound I-439] | 0.1 to 0.5
O=C1NC(c2cc(F)ccc2Cl)c2c(NC(=O)N3CCn4c(nnc4C(F)(F)F)C3)cccc21 (centres unmarked) [Compound I-2111] | 10 to 100
Cc1ccccc1C1NC(=O)c2cc(CO)cc(NC(=O)c3nsc4ccccc34)c21 (centres unmarked) [Compound I-131, N-[6-(Hydroxymethyl)-3-(2-methylphenyl)-1-oxo-2,3-dihydro-1H-isoindol-4-yl]-1,2-benzothiazole-3-carboxamide] | ≤ 0.1
COCc1cc(NC(=O)N2C[C@@](O)(C(F)(F)F)c3cc(F)ccc32)c2c(c1)C(=O)N[C@H]2c1cc(F)ccc1Cl (single isomer, unassigned) [Compound I-2543] | 1 to 10
CN1CC=C(c2cc(-c3ccc4ncnn4c3)cc3c2C(c2cc(F)ccc2Cl)NC3=O)CC1 (centres unmarked) [Compound I-2021] | 10 to 100
